Data from patent US6764682B1, “Adjuvant compositions containing more than one adjuvant” (priority 1994, dated 2004).

Key:
Type in all cases: in vivo
[1] = test system: peptide-specific IgG antibodies; experiment: Guinea pig antibody responses to synthetic peptides formulated with different adjuvants (peptide-specific ELISA); conditions: mean titer of three guinea pigs, three injections
CLTB-56 = experiment: Guinea pig antibody response to CLTB-36 in different adjuvants, ELISA titer against CLTB-56; conditions: guinea pigs (n = 3) immunized with 20 μg CLTB-36 in the named adjuvant; boosters at 2, 4 and 6 weeks
CLTB-36 = experiment: Guinea pig antibody response to CLTB-36 in different adjuvants, ELISA titer against CLTB-36; conditions: guinea pigs (n = 3) immunized with 20 μg CLTB-36 in the named adjuvant; boosters at 2, 4 and 6 weeks
[2] = adjuvant BAY R1005, 100 μg peptide per dose (CLTB-36 20 μg)
[3] = adjuvant CFA, 100 μg peptide per dose (CLTB-36 20 μg)
[4] = adjuvant OTH, 100 μg peptide per dose (CLTB-36 20 μg)
[5] = adjuvant TPC, 100 μg peptide per dose (CLTB-36 20 μg)
[6] = adjuvant alum, 100 μg peptide per dose (CLTB-36 20 μg)
[7] = peptide in PBS (no adjuvant), 100 μg peptide per dose (CLTB-36 20 μg)
[8] = Table 3, adjuvant BAY R1005 + alum, 100 μg peptide per dose

| Molecule | Peptide-Specific Antibody Titre [1, 2] | Peptide-Specific Antibody Titre [1, 3] | Peptide-Specific Antibody Titre [1, 4] | Peptide-Specific Antibody Titre [1, 5] | Peptide-Specific Antibody Titre [1, 6] | Peptide-Specific Antibody Titre [1, 7] | Peptide-Specific Antibody Titre [1, 8] | Average titers against CLTB-56 (CLTB-56) | Average titers against CLTB-36 (CLTB-36) | Peptide-Specific Antibody Titre ([1]; Table 3, adjuvant BAY R1005, 100 μg peptide per dose) | Peptide-Specific Antibody Titre ([1]; Table 3, adjuvant alum, 100 μg peptide per dose) |
| --- | --- | --- | --- | --- | --- | --- | --- | --- | --- | --- | --- |
| GPKEPFRDYVDRFYKNTRQSTPIGLGQALYTTRG [CLTB-76] | 45,833 | 625,000 | 6,400 | 3,200 | 9,166 | 1,833 | – | – | – | – | – |
| QSYSIMSIIKEEVLAYAVQLPLPLYGVIDTP [RSV-F] | 3,850 | 6,400 | 3,200 | 1,600 | 32,000 | 500 | 128,000 | – | – | – | – |
| CSNNPTCWAICKRIPNKKPGKKT [RSV-G2] | 3,200 | 128,000 | – | 1,600 | 31,500 | 1,280 | – | – | – | – | – |
| PQPGPQPPQPPQPQPEAPAPQPPC [69K-P1] | 32,500 | 10,000 | – | 1,600 | 32,500 | 800 | – | – | – | – | – |
| IKEIDESESEDYAKEGFRAP [PSP-AA] | – | 12,500 | – | – | 1,600 | 200 | – | – | – | – | – |
| TKQRQNKPPSKPNNDFHFEVFNFVPC [RSV-G1] | 31,500 | 315,000 | – | 6,400 | 128,000 | 1,600 | – | – | – | – | – |
| CC(=O)O.CCCCCCCCCCCCCCCCCCN(C(=O)CCCCCCCCCCC)[C@@H]1O[C@H](CO)[C@@H](O)[C@H](O)[C@H]1NC(=O)[C@@H](N)CC(C)C [BAY R1005, N-(2-deoxy-2-L-leucylamino-β-D-glucopyranosyl)-N-octadecyldodecanamide acetate] | – | – | – | – | – | – | – | 4,333 | 62,500 | – | – |
| GPKEPFRDYVDRFYKNTRKRIRIQRGGRAFVTIGK [CLTB-72] | 45,800 | 312,500 | 6,400 | 3,200 | 37,500 | 2,333 | – | – | – | – | – |
| GPKEPFRDYVDRFYKNRKRIHIGPGRAFYTTKN [CLTB-36] | 72,800 | 256,000 | 6,400 | 3,200 | 10,000 | 400 | – | – | – | – | – |
| PDPGDLVEYIMNYTGNQQSRWGLGSPNCHGPDWASPVCQRHSP [RV-EP27] | – | 128,000 | 25,600 | – | 12,800 | 400 | – | – | – | – | – |
| TVGKKTYQVEACCSNLSYVKFGM [TBP2-3] | 32,500 | 12,500 | – | – | 43,333 | 400 | – | – | – | – | – |
| PIVNKQSCSISNIETVIEFQQ [RSV-FND2] | 10,000 | 12,800 | 6,400 | 3,200 | 7,800 | 400 | 25,600 | – | – | 10,000 | 7,800 |
| NQITSALSTQQEFRDLKKYLPSKDKSVVSLQDRAC [HIBP1-5E] | 32,500 | 312,500 | – | 1,600 | 8,333 | 200 | – | – | – | – | – |
